Test results as given in US9686990B2, “Spiroindolinepiperidine derivatives” (priority 2002, dated 2017).

Experiments:
Assay type in all cases: in vivo
[1] = system: Heliothis virescens (Tobacco Budworm); assay: Heliothis virescens egg/larva test on artificial diet; conditions: 96 h, read-out: control of Heliothis virescens
[2] = system: Aedes aegypti (Yellow Fever Mosquito); assay: whole plant or invertebrate; conditions: 48 h, L2 larvae with nutrition mixture, 2 days, mortality and growth inhibition
Experimental: (§1) Test against were performed as follows:
Bean leaf discs on agar in 24-well microtiter plates wer sprayed with test solutions at an application rate of 200 ppm. After drying, the leaf discs are infested with mite populations of mixed ages. 8 days later, discs are checked for egg mortality, larval mortality, and adult mortality. […] Aedes aegypti (Yellow Fever Mosquito): 10-15 Aedes larvae (L2) together with a nutrition mixture are placed in 96-well microtiter plates. Test solutions at an application rate of 2 ppm are pipetted into the wells. 2 days later, insects were checked for mortality and growth inhibition.

[3] = system: Spodoptera littoralis (Egyptian Cotton Leafworm); assay: Spodoptera littoralis cotton leaf disc spray test; conditions: foliar, 72 h, read-out: control of Spodoptera littoralis
Experimental: as §1
Spodoptera littoralis (Egyptian Cotton Leafworm)

[4] = system: Plutella xylostella (Diamond Back Moth); assay: Plutella xylostella larva test on artificial diet; conditions: 120 h, 18.2 ppm by pipetting on artificial diet, L2 larvae, 5 days incubation, larval mortality, antifeedant, growth regulation
Experimental: as §1
24-well microtiter plate (MTP) with artificial diet was treated with test solutions at an application rate of 18.2 ppm by pipetting. After drying, the MTP's were infested with larvae (L2) (10-15 per well). After an incubation period of 5 days, samples were checked for larval mortality, antifeedant and growth regulation.

SMILES | pest or weed control at 200 ppm [1] [%] | pest or weed control at 2 ppm [2] [%] | pest or weed control at 200 ppm [3] [%] | pest or weed control at 18.2 ppm [4] [%]
CC(=O)N1CC2(CCN(C/C=C/c3ccc(Cl)cc3)CC2)c2cc(Cl)ccc21 [Compound V-22, 1-Acetyl-5-chloro-1′-[trans-3-(4-chlorophenyl)allyl]spiro[indoline-3,4′-piperidine]] | ≥ 80 | ≥ 80 | ≥ 80 | ≥ 80
O=C(c1ccncc1)N1CC2(CCN(C/C=C/c3ccc(Cl)cc3)CC2)c2cc(Cl)ccc21 [VI-22, 1-(Pyridin-4-yl)-carbonyl-5-chloro-1′-[trans-3-(4-chlorophenyl)allyl]spiro[indoline-3,4′-piperidine]] | ≥ 80 | ≥ 80 | ≥ 80 | ≥ 80
N#Cc1ccc2c(c1)C1(CCN(C/C=C/c3ccc(Cl)cc3)CC1)CN2C(=O)c1ccnc(Cl)c1 [Compound I-212, 5-Cyano-1-(2-chloropyridin-4-yl)carbonyl-1′-[trans-3-(4-chlorophenyl)allyl]spiro[indoline-3,4′-piperidine]] | ≥ 80 | ≥ 80 | ≥ 80 | ≥ 80
O=C(c1ccnc(Cl)c1)N1CC2(CCN(C/C=C(\Cl)c3ccc(Cl)cc3)CC2)c2cc(Cl)ccc21 [XXX-115, 1-(2-chloropyridin-4-yl)carbonyl-5-chloro-1′-[(Z)-3-(4-chlorophenyl)-3-chloro-allyl]spiro[indolin-3,4′-piperidine]] | ≥ 80 |  |  | 
O=C(c1ccnc(Cl)c1)N1CC2(CCN(C/C=C(\F)c3ccc(Cl)cc3)CC2)c2cc(Cl)ccc21 [XXX-90, 1-(2-chloropyridin-4-yl)carbonyl-5-chloro-1′-[(Z)-3-(4-chlorophenyl)-3-fluoro-allyl]spiro[indolin-3,4′-piperidine]] | ≥ 80 | ≥ 80 |  | ≥ 80
C/C(=N/N1CC2(CCN(C/C=C/c3ccc(Cl)cc3)CC2)c2cc(Cl)ccc21)N(C)C [XXX-102, N′-[5-chloro-1′-[trans-3-(4-chlorophenyl)allyl]spiro[indoline-3,4′-piperidine]-1-yl]-N,N-dimethylacetamidine] |  | ≥ 80 |  | 
NN1CC2(CCN(C/C=C/c3ccc(Cl)cc3)CC2)c2cc(F)ccc21 [XXX-94] | ≥ 80 | ≥ 80 |  | 
CSc1ccc(/C=C\CN2CCC3(CC2)CN(C(=O)c2ccnc(Cl)c2)c2ccc(Cl)cc23)cc1 [XXX-72, 1-(2-chloropyridin-4-yl)carbonyl-5-chloro-1′-[(Z)-3-(4-methylthiophenyl)allyl]spiro[indolin-3,4′-piperidine]] | ≥ 80 |  |  | 
Clc1ccc(/C=C/CN2CCC3(CC2)CN(c2cnccn2)c2ccc(Cl)cc23)cc1 [XIV-22, 1-(2-Pyrazinyl)-5-chloro-1′-[trans-3-(4-chlorophenyl)allyl]spiro[indoline-3,4′-piperidine]] | ≥ 80 | ≥ 80 | ≥ 80 | ≥ 80
O=C(c1ccnc(Cl)c1)N1CC2(CCN(C/C=C/c3ccccc3)CC2)c2ccccc21 [Compound I-1, 1-(2-Chloropyridin-4-yl)carbonyl-1′-[trans-3-phenylallyl]spiro[indoline-3,4′-piperidine]] | ≥ 80 |  |  | ≥ 80
COCCNC(=O)N1CC2(CCN(C/C=C/c3ccc(Cl)cc3)CC2)c2cc(F)ccc21 [XXX-105] | ≥ 80 | ≥ 80 | ≥ 80 | ≥ 80
O=C(c1ccnc(Cl)c1)N1CC2(CCN(C/C=C/c3ccc(C(F)(F)F)cc3)CC2)c2cc(Cl)ccc21 [XXX-51, 1-(2-chloropyridin-4-yl)carbonyl-5-chloro-1′-[(E)-3-(4-trifluoromethyl-phenyl)allyl]spiro[indolin-3,4′-piperidine]] |  | ≥ 80 | ≥ 80 | ≥ 80
Cc1ccc2c(c1)C1(CCN(C/C=C/c3ccc(Cl)cc3)CC1)CN2C(=O)c1ccc(C#N)cc1 [XIX-202, 1-(4-cyanobenzoyl)-5-methyl-1′-[trans-3-(4-chlorophenyl)allyl]spiro[indoline-3,4′-piperidine]] | ≥ 80 |  | ≥ 80 | 
O=C(c1ccnc(Cl)c1)N1CC2(CCN(C/C(F)=C/c3ccc(Cl)cc3)CC2)c2cc(Cl)ccc21 [XXX-113, 1-(2-chloropyridin-4-yl)carbonyl-5-chloro-1′-[(Z)-3-(4-chlorophenyl)-2-fluoro-allyl]spiro[indolin-3,4′-piperidine]] | ≥ 80 | ≥ 80 | ≥ 80 | ≥ 80
